# Values quoted from earlier work as cited in patent publication US5641787A, “Indole derivatives as dopamine D4 antagonists” (Merck, Sharp & Dohme Ltd., priority 1995, dated 1997).
# Details: stated in Recl. Trav. Chim. Pays-Bas, 1954, 73, 629
structure (smiles),measurement,value
"c1ccc2c(c1)CCN(Cc1c[nH]c3ccccc13)C2 [3-(1,2,3,4-tetrahydroisoquinolin-2-yl)methyl-1H-indole]",oxytocic activity,oxytocic activity
